Entries after “also recorded” stand apart in the source; their conditions may differ. Where two headings read alike, the source gives them in different places.
How the values were obtained:
HTT mRNA [1] = assay: Phase 1 study, HTT mRNA in whole blood of healthy volunteers; format: in vivo, human; conditions: for Mean decrease in full-length HTT mRNA levels: after 14 days of treatment (MAD)
Protocol: The Phase 1 study was conducted in 5 parts: single ascending doses (SAD)(Part 1), multiple ascending doses (MAD)(Part 2), CSF and blood sampling after 7 days of Compound 1 administration (Part 3), food effect (Part 4), and multiple dosing for up to 28 days (Part 5). Part 1, Part 2, and Part 5 are double blind; Part 3 and Part 4 are open-label. Note that Part 3, Part 4, and Part 5 may be conducted concurrently.
The single ascending dose (SAD) part of the study was randomized, double-blinded, and placebo controlled in healthy male and female subjects.
(§1) The multiple ascending (MAD) part of the study was randomized, double-blind, and placebo controlled in healthy male and female subjects. Up to five regimens are planned to be tested in up to 5 cohorts of 8 subjects each (Cohort 2.1 to 2.5). Within each cohort, 6 subjects were to receive Compound 1 and 2 subjects were to receive placebo. Subjects in Cohort 2.1 and 2.2 were to be dosed for 14 days, subjects in Cohort 2.3 to 2.5 were to be dosed for up to 21 days.
The amount of HTT mRNA was then evaluated by RT-PCR 6 hours after administration of Compound 1 on day 14.

HTT protein = assay: Phase 1 study, HTT protein in blood of healthy volunteers (MAD); format: in vivo, human; conditions: after 21 days of treatment (MAD)
Source text: as §1
In untreated cells, there is a steady state level of mRNA and protein because the amount of mRNA or protein being synthesized matches the amount that is being degraded, so that the mRNA and protein levels are the same over time. The addition of Compound 1 triggers the inclusion of the HTT pseudoexon into the transcript which results in the rapid decay of the HTT mRNA and a reduction of HTT mRNA to […]. […] In this example, ˜50% of newly synthesized mRNA was inhibited. Of the HTT mRNA synthesized prior to treatment, about 50% is degraded after 24 hours. The HTT protein level depends on how much mRNA is produced. Thus, a reduction by 50% would cause a 50% reduction of the HTT protein. […] Changes in HTT protein levels were assessed in MAD cohort over a longer period of time. Accordingly, healthy subjects were treated for 21 days before the amount of HTT mRNA and protein was measured in blood samples taken from each subject. […]

[2] = Phase 1 study, safety and tolerability in healthy subjects; format: in vivo, human
Protocol: The study was monitored by a Safety Review Committee (SRC). […] Safety and tolerability were assessed by the SRC between each cohort prior to ascending from one dose level to the next higher dose level in Part 1 (single ascending dose [SAD]) and Part 2 (multiple ascending dose [MAD]), and prior to initiating Part 3 (CSF), Part 4 (FE), and Part 5.
Change from baseline to each scheduled time point up to EOS for vital signs; Change from baseline to each scheduled time point up to EOS for ECG parameters; Change from baseline to each scheduled time point up to EOS for clinical laboratory tests; Changes from baseline in C-SSRS scores (Part 2, Part 3, and Part 5 only); Treatment-emergent adverse events (AEs) up to EOS; Treatment-emergent AEs leading to premature discontinuation of study drug; Treatment-emergent serious adverse events (SAEs) up to EOS; and, Abnormalities in physical examination.

[3] = Phase 1 study, pharmacokinetics in plasma and CSF, food effect; format: in vivo, human
Source text: The concentrations of Compound 1 in plasma and CSF were to be assessed in an open-label design in healthy male and female subjects. A single dose of Compound 1 was to be administered daily for 7 days in 1 cohort of 6 subjects (Cohort 3.1). The dose level of Part 3 was to be determined based upon a review of the safety, tolerability, and PK data of Part 1 and Part 2 of the study. While the MAD dose was to be determined further in development, that dose and schedule was to be applied to this part of the study.
Eligibility was to be assessed during a screening period of up to 28 days. Subjects were to check into the clinic 1 day before dosing (Day −1). On the morning of Day 1 to Day 7, Compound 1 was to be orally administered after an overnight fast of at least 10 hours each day. Serial sampling of CSF and sampling of plasma for drug concentrations was to be performed on Day 7. The exact timing of the CSF and blood samples was to be determined based on the results of Part 1 and Part 2. […]
The food effect (FE) part was a parallel, open-label part in healthy male and female subjects in up to 3 cohorts of 6 subjects each. […] The dose levels for this part were to be chosen based upon a review of available safety, tolerability and PK data as determined in Part 1 and Part 2.

Rat toxicology, NOAEL = conditions: male, in vivo
Protocol: The initial dose in the first cohort was ≤ 1/10 of the human equivalent dose (HED) estimated from the NOAEL (no observed adverse effect level) of the (male) rat, which is the most sensitive species, following the FDA guidance on the maximum recommended starting dose (MRSD) and EMA guidelines. The NOAEL of the rat is 6 mg/kg. […] The HED of 0.97 mg/kg was calculated; this scaled in a 70 kg human to 68 mg. Adjusting this dose to 1/10, the dose of the first cohort was 6.8; the actual administered dose will be 5 mg.

[4] = PK-PD compartment model and decay-rate modelling of HTT mRNA and protein lowering; parameters: species or system human; conditions: 30 mg daily dose, model based on half-life
Source text: (§2) HTT mRNA reaches steady state after approximately 5 days. For HTT protein, the half-life was estimated to be 5-7 days and consequently HTT protein steady state levels would only be attained about 6 weeks from the beginning of treatment.
(§3) A target 30% to 50% decrease in mHTT is the range associated with decreased pathology and anticipated therapeutic benefit in patients. In the Phase 1 study, Compound 1-mediated HTT pre-mRNA splicing was dose dependent across all cohorts in both the SAD and MAD portions of the study. Mean decreases in full-length HTT mRNA levels of 40% and 60% were observed after 14 days of treatment with Compound 1 at 15 mg and 30 mg, respectively. On the basis of these clinical data, a PK-PD compartment model was used to simulate percentage of mRNA decreases (and thus the anticipated magnitude of HTT protein lowering) at additional potential clinical doses.

HTT mRNA [5] = assay: as above; parameters: species or system human
Source text: as §2, §3

SMILES: CC1(C)CC(n2nnc3cc(-c4ccc(-n5nccn5)cc4O)nnc32)CC(C)(C)N1 [Compound 1, 2-[3-(2,2,6,6-tetramethylpiperidin-4-yl)-3H-[1,2,3]triazolo[4,5-c]pyridazin-6-yl]-5-(2H-1,2,3-triazol-2-yl)phenol]
- Mean decrease in full-length HTT mRNA levels (HTT mRNA [1]; 15 mg): 40%
- Mean decrease in full-length HTT mRNA levels (HTT mRNA [1]; 30 mg): 60%
- maintenance of splicing following the last dose (HTT mRNA [1]; MAD cohort): up to 72 hours
- HTT mRNA in whole blood (HTT mRNA [1]; MAD: 15 mg or 30 mg for 14 days, 6 hours after dose on day 14): dose-dependent lowering of HTT mRNA
- time for HTT mRNA levels to reach steady state (HTT mRNA [1]; Multiple Ascending Dose Study): 4 to 5 days
- total amount of HTT mRNA (HTT mRNA [1]; SAD cohort, 24 hours after dose, even with higher concentrations): about 50 % of baseline
- persistence of HTT splicing effect post cessation of treatment (HTT mRNA [1]; SAD cohorts): 72 h
- HTT mRNA in whole blood (HTT mRNA [1]; SAD: 5, 15, 45, 90 or 135 mg, 24 hours after dose): dose-dependent lowering of HTT mRNA
- HTT mRNA lowering (target level achieved) (HTT mRNA [1]; lowest dose tested, both SAD and MAD cohorts): 30-50%
- lowering in the amount of HTT protein (HTT protein): approximately 40%
- dose-limiting toxicities ([2]; SAD and MAD portions): no events considered to be dose-limiting toxicities
- laboratory abnormalities and ECG findings ([2]; any dose, SAD and MAD portions): no clinically significant laboratory abnormalities or electrocardiogram (ECG) findings
- safety and tolerability ([2]; single doses 5 to 135 mg, multiple doses 15 and 30 mg up to 21 days): well-tolerated with no safety-related findings; also recorded: safe and generally well tolerated
- drug half-life ([3]; MAD cohort): long drug half-life
- Compound levels in the CSF compared with plasma ([3]; healthy subjects, 30 mg daily dose): equal to or greater than levels observed in plasma
- NOAEL (Rat toxicology, NOAEL; (male) rat, germ cell exfoliation in epididymis and testes, read-out: NOAEL (no observed adverse effect level)): 6 mg/kg
- NOAEL (Rat toxicology, NOAEL; from rat NOAEL, read-out: human equivalent dose (HED) estimated from the NOAEL): 0.97 mg/kg
- predicted time for HTT protein steady state levels [4]: about 6 weeks
- predicted percent full-length HTT mRNA decrease from baseline (HTT mRNA [5]; 10 mg QD and 20 mg QD, PK-PD compartment model): 30 to 50%
- predicted time for HTT mRNA to reach steady state (HTT mRNA [5]; 30 mg daily dose, model based on half-life): approximately 5 days

Reference: patent publication US20220162610A1, “NOVEL RNA TRANSCRIPT” (PTC Therapeutics, Inc., priority 2020, published 2022)
